Assay results taken from the supplement of paper PMC10307832.

Assays:
Test in all cases: relative viability (nuclei count vs DMSO), 5 days (fraction); higher = more cells survive
[1] = compound: C[C@@]1(C(=O)Nc2ccc(F)nc2)CCCN1c1nc(Nc2cc(C3CC3)n[nH]2)c2cccn2n1 + CC1(C)CCC(c2ccc(Cl)cc2)=C(CN2CCN(c3ccc(C(=O)NS(=O)(=O)c4ccc(N[C@H](CCN5CCOCC5)CSc5ccccc5)c(S(=O)(=O)C(F)(F)F)c4)cc3)CC2)C1 [Navitoclax] (partner 0.5 µM)
In short: (§1)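 Dosing by pin tool came one day after lung cancer cell lines were seeded in 1536-well plates, using either one drug or a fixed anchor-drug dose plus five library-drug doses (not always all listed) in √10 steps. After 5 days, nuclei were counted on 4× images. Relative viability is treated-well nuclei count divided by vehicle-well nuclei count, and values are medians of duplicate plates.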

[2] = compound: C[C@@]1(C(=O)Nc2ccc(F)nc2)CCCN1c1nc(Nc2cc(C3CC3)n[nH]2)c2cccn2n1 + C[C@@H](Oc1cc(-c2cnn(C3CCNCC3)c2)cnc1N)c1c(Cl)ccc(F)c1Cl [Crizotinib] (partner 1 µM)
In short: as §1

Motesanib + Tozasertib = compound: CC1(C)CNc2cc(NC(=O)c3cccnc3NCc3ccncc3)ccc21 [Motesanib] + Cc1cc(Nc2cc(N3CCN(C)CC3)nc(Sc3ccc(NC(=O)C4CC4)cc3)n2)n[nH]1 [Tozasertib] (partner 0.1 µM)
In short: as §1

[3] = compound: C[C@@]1(C(=O)Nc2ccc(F)nc2)CCCN1c1nc(Nc2cc(C3CC3)n[nH]2)c2cccn2n1 + Nc1nc2[nH]cc(CCc3ccc(C(=O)N[C@@H](CCC(=O)O)C(=O)O)cc3)c2c(=O)[nH]1 [Pemetrexed] (partner 0.2 µM)
In short: as §1

Row | Cell Line | relative viability ([1]; first compound 0.04 µM) | relative viability ([1]; first compound 0.1265 µM) | relative viability ([1]; first compound 0.4 µM) | relative viability ([1]; first compound 1.265 µM) | relative viability ([2]; first compound 0.04 µM) | relative viability ([2]; first compound 0.1265 µM) | relative viability ([2]; first compound 0.4 µM) | relative viability ([2]; first compound 1.265 µM) | relative viability (Motesanib + Tozasertib; first compound 0.01 µM) | relative viability (Motesanib + Tozasertib; first compound 0.03162 µM) | relative viability (Motesanib + Tozasertib; first compound 0.1 µM) | relative viability (Motesanib + Tozasertib; first compound 0.3162 µM) | relative viability (Motesanib + Tozasertib; first compound 1 µM) | relative viability ([3]; first compound 0.04 µM) | relative viability ([3]; first compound 0.1265 µM) | relative viability ([3]; first compound 0.4 µM) | relative viability ([3]; first compound 1.265 µM)
1 | EBC-1 | 0.342 | 0.315 | 0.315 | 0.197 | 0.195 | 0.168 | 0.211 | 0.2 | – | – | – | – | – | – | – | – | –
2 | NCI-H1299 | 1.08 | 0.976 | 1.04 | 1.02 | 0.963 | 0.956 | 0.97 | 0.96 | – | – | – | – | – | – | – | – | –
3 | NCI-H2342 | – | – | – | – | – | – | – | – | 0.493 | 0.496 | 0.438 | 0.562 | 0.583 | 0.819 | 0.725 | 0.579 | 0.664
4 | IA-LM | 0.983 | 0.904 | 0.746 | 0.593 | 0.68 | 0.983 | 0.646 | 0.456 | – | – | – | – | – | – | – | – | –
5 | NCI-H727 | 0.175 | 0.185 | 0.106 | 0.14 | 0.687 | 0.436 | 0.259 | 0.211 | 0.603 | 0.574 | 0.638 | 0.645 | 0.577 | – | – | – | –
6 | NCI-H650 | – | – | – | – | 0.764 | 0.449 | 0.489 | 0.47 | 0.749 | – | 0.709 | 0.707 | 0.701 | 0.837 | 0.706 | 0.745 | 0.692
7 | NCI-H661 | – | – | – | – | 0.983 | – | 1.01 | – | 0.372 | 0.357 | 0.367 | 0.361 | 0.351 | 0.918 | 0.909 | 0.796 | 0.899
8 | NCI-H1793 | 0.31 | 0.304 | 0.378 | 0.351 | – | – | – | – | 0.37 | 0.268 | 0.422 | 0.321 | 0.302 | 0.644 | 0.825 | 0.634 | 0.508
